pIC50: −log10 of the molar value.
Biological target: T1, Dual specificity tyrosine-phosphorylation-regulated kinase 1A (Homo sapiens, UniProt Q13627)
Experiment: Inhibition of human DYRK1A in presence of ATP by Kinomescan method

Compound | pIC50
CCn1c2cc(OC)ccc2c2ccnc(C)c21 | 5.05
NCC(Nc1nccc(-c2n[nH]c3nc(NC4CCC(N)CC4)ncc23)n1)c1cccc(Cl)c1 (stereo not given) | 8.34
NC1CCC(Nc2ncc3c(-c4ccnc(NCc5ccsc5)n4)n[nH]c3n2)CC1 (stereo not given) | 7.85
COc1cc2[nH]c(=O)c(C(=O)Nc3cc(C(=O)NCc4cccc(Cl)c4)ccc3C)cc2cc1OCCN1CCOCC1 | 7.80

Now from value to compound:

pIC50 | Compound
8.52 | COC(=N)c1nc2ccc3ncnc(Nc4ccc(F)cc4Br)c3c2s1
8.22 | NC1CCC(Nc2ncc3c(-c4ccnc(NCc5ccccc5)n4)n[nH]c3n2)CC1 (stereo not given)

Biological target: Dual specificity protein kinase CLK1 (Homo sapiens, UniProt P49759)
Sequence (P49759 whole entry): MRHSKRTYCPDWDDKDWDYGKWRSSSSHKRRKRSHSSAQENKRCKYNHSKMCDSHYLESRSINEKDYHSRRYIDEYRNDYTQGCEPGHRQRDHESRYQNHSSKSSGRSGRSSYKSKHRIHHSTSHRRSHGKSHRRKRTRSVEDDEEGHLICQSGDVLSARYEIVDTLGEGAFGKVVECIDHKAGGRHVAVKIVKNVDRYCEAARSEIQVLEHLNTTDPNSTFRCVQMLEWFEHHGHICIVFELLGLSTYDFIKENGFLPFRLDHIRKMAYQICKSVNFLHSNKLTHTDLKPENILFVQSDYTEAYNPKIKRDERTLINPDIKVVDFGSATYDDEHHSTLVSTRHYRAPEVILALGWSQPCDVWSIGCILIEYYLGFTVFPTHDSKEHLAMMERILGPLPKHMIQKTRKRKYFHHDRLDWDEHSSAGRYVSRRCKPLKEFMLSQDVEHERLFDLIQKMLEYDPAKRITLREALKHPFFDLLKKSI
Experiment: Inhibition of CLK1 (unknown origin)

Compound | pIC50
COc1ccc2cc3c4c(cc(OC)c(OC)c4c2c1)C(=O)N3 [ARISTOLACTAM BIII] | 7.30

Biological target: T1, Dual specificity tyrosine-phosphorylation-regulated kinase 1A
Experiment: Inhibition of human recombinant 6xHis-tagged DYRK1A catalytic domain (1 to 502 residues) extracted from Escherichia coli BL21 (DE3) cells incubated for 30 mins by Bradford's reagent based analysis

pIC50 | Compound
6.34 | COc1ccc(-c2c[nH]c3ncc(-c4ccc(OC)c(OC)c4)cc23)cc1
4.24 | COc1ccc(-c2cnc3[nH]cc(-c4ccc(OC)c(OC)c4)c3c2)cc1OC
7.92 | Oc1ccc(-c2cnc3[nH]cc(-c4ccc(O)c(O)c4)c3c2)cc1O
4.25 | Oc1ccc(-c2cnc3[nH]cc(-c4ccc(F)c(F)c4)c3c2)cc1O
5.28 | COc1ccc(-c2cnc3[nH]cc(-c4ccc(F)c(F)c4)c3c2)cc1OC
4.73 | COc1ccc(-c2c[nH]c3ncc(-c4ccc(OCc5ccccc5)c(OCc5ccccc5)c4)cc23)cc1OC
6.33 | COc1ccc(-c2c[nH]c3ncc(-c4ccc(O)c(O)c4)cc23)cc1OC
5.84 | COc1ccc(-c2cnc3[nH]cc(-c4ccc(F)cc4)c3c2)cc1OC

Biological target: Dual specificity tyrosine-phosphorylation-regulated kinase 1B (Homo sapiens, UniProt Q9Y463)
Sequence (Q9Y463 whole entry): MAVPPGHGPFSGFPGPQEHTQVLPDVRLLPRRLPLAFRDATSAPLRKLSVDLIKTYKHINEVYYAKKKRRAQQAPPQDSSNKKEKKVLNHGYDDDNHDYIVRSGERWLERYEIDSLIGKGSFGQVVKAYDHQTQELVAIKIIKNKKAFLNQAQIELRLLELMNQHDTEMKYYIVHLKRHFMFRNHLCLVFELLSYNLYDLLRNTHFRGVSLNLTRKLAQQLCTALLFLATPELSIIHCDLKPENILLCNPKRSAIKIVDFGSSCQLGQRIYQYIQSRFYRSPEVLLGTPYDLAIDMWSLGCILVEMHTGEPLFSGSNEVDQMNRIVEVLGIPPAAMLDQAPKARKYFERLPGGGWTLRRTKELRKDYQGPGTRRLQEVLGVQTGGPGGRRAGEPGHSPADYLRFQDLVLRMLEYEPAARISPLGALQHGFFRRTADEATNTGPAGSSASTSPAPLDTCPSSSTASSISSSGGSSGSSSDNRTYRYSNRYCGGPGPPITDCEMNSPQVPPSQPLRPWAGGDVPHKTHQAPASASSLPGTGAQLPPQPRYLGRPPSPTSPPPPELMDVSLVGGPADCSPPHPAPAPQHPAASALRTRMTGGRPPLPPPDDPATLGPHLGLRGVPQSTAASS
Experiment: Inhibition of DYRK1B (unknown origin) by DiscoverX KINOMEscan assay

pIC50 | Compound
7.25 | O=C(Nc1ccc(C(=O)NCc2ccccc2)cc1)Nc1nc2ccc(O)cc2s1

Biological target: T1, Dual specificity tyrosine-phosphorylation-regulated kinase 1A
Experiment: Inhibition of DYRK1A (unknown origin) extracted from Escherichia coli BL21 (DE3) cells measured for 60 mins by FRET assay

pIC50 | Compound
6.82 | CN(Cc1ccco1)c1ncnc2ccc(-c3ccc4c(c3)OCO4)cc12
7.08 | O=C1NC(Nc2ccc(O)cc2)=N/C1=C\c1ccc2c(c1)OCO2
6.05 | Oc1ccc(-c2cnc3cnc(-c4ccc(O)cc4)nc3c2)cc1
7.70 | CCCC#Cc1ccnc2[nH]cc(-c3ccnc(N)n3)c12

Tested on: not listed separately
Experiment: Half life in human
Assay type: ADME

half-life [h] | Compound
> 1 | CN1CCN(C(=O)c2ccc(NC(=O)Nc3nc4ccc(O)cc4s3)cc2)CC1

Biological target: T1, Dual specificity tyrosine-phosphorylation-regulated kinase 1A
Experiment: Inhibition of DYRK1A (unknown origin)

Compound | pIC50
CC(C)Nc1cncc(-c2ccc3cnc(NC(=O)C4CCN(C)CC4)cc3c2)n1 | 9.00
CC(C)N1CCC(n2cc(C(=O)Nc3cc4cc(-c5cnn(C)c5)ccc4cn3)cn2)CC1 | 9.00
Cc1nc2ccc(-c3ccnc(N)c3)nc2n1-c1ccc(N2CCN(CCOCCOCCC(=O)N3CCN(Cc4ccc(CNc5cccc6c5C(=O)N(C5CCC(=O)NC5=O)C6)cc4)CC3)CC2)c(F)c1 (stereo not given) | > 5.00
COCCn1nc2c(c1C#N)-c1cnc3[nH]cc(c3c1)-c1cn(nc1C(F)(F)F)CCCC(=O)N(C)C2 | > 7.30
COc1nc(NC2CCN(C(C)=O)CC2F)nn2ccc(-c3ccc4nnn(CC(F)F)c4c3)c12 (stereo not given) | 9.00
Cn1cc(C(=O)Nc2ncc(-c3ccc(C#N)cc3)s2)ccc1=O | > 8.00
COCC(CC(C)C)NC1=N/C(=C\c2ccc3ncsc3c2)C(=O)N1C (stereo not given) | > 8.30
O=C(NC1=Cc2ccc(O)cc2C1)Nc1ccc(NC(=O)c2ccc(O)cc2)cc1 | 8.11

Second part, the compound after the results:

pIC50 | Compound
9.00 | O=c1[nH]c2ccc(-c3cncc(NCc4ccccc4)n3)cc2[nH]1
> 7.00 | CN1CCN(c2ccc(-c3ncnc4ccc(-c5ccnc(N)c5)cc34)cc2F)CC1

Biological target: Cyclin-dependent kinase 1 (Homo sapiens, UniProt P06493)
Sequence (P06493 whole entry): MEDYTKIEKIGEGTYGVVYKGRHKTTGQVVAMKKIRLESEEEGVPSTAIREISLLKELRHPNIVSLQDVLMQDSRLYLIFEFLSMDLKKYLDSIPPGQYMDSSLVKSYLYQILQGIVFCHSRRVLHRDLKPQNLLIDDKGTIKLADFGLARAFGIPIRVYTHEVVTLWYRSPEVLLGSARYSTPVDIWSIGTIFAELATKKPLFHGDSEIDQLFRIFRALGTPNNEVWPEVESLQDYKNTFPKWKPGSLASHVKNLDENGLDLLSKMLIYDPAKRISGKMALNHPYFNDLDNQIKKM
Experiment: Inhibition of CDK1 (unknown origin)

Compound | pIC50
COc1ccc2cc3c4c(cc(OC)c(OC)c4c2c1)C(=O)N3 [ARISTOLACTAM BIII] | 6.39

Biological target: T2, Dual specificity tyrosine-phosphorylation-regulated kinase 4 (Homo sapiens, UniProt Q9NR20)
T2 sequence (Q9NR20 whole entry): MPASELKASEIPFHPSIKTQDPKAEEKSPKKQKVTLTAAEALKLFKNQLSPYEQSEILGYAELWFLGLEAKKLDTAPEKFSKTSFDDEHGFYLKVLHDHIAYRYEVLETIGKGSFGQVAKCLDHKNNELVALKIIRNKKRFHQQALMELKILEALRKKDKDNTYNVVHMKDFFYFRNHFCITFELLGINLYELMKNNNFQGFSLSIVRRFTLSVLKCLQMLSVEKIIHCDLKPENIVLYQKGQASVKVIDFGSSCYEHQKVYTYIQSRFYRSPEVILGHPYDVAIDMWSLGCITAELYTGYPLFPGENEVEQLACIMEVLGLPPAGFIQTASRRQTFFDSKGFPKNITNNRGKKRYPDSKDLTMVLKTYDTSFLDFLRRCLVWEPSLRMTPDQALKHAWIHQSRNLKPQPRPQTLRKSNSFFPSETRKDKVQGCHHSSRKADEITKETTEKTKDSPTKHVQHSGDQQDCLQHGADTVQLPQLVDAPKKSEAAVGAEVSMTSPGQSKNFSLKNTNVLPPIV
Experiment: Inhibition of DYRK4 (unknown origin)

Compound | pIC50
COc1ccc2cc3c4c(cc(OC)c(OC)c4c2c1)C(=O)N3 [ARISTOLACTAM BIII] | 5.93

Biological target: T1, Dual specificity tyrosine-phosphorylation-regulated kinase 1A
Experiment: Inhibition of DYRK1A (unknown origin) by FRET assay

Compound | pIC50
COc1ccc2c(c1)[nH]c1c3c(OC)cncc3cc(C#N)c21 | 6.74
CC(=O)Nc1nc2cc(O)ccc2s1 | 6.40
Cc1ccc(NC(=O)c2n[nH]c3ccc(-c4cncc(CN5CCCCC5)c4)cc23)cn1 | 9.00
CCN1/C(=C/C(C)=O)Sc2cc3oc4ccccc4c3cc21 | 7.70
Cc1c(O)cccc1-c1ccc2nc(NC(=O)C3CC3F)sc2c1 (stereo not given) | 8.22

Further lines, results first:

pIC50 | Compound
8.70 | Cc1nc2ccc(-c3cc(N)nc(N)c3)nc2n1-c1ccccc1
8.70 | Cc1nc(Nc2ccccc2)c2c(-c3cc(N)nc(N)c3)c[nH]c2n1
